For one assay, the system named is wheat. In words: Test C postemergence herbicide test. Format: in vivo, Triticum aestivum. The essentials:
(§1)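 Weeds and wheat were sprayed after emergence, at a height of 2 to 18 cm (1–4 leaves), and paddy barnyardgrass was flooded and treated at two leaves. Assessment took place 12–14 days later in the greenhouse on a 0-to-100 visual control scale. A dash means no result was obtained.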

The subject of another assay is Italian ryegrass. In words: Test C postemergence herbicide test. The format is in vivo, Lolium multiflorum. The essentials: as §1
A further assay concerns blackgrass. The experiment in a line: Test C postemergence herbicide test. Format: in vivo, Alopecurus myosuroides. In outline:
as §1

A further assay has as its system wild oat. In words: Test C postemergence herbicide test. Format: in vivo, Avenafatua. In outline:
as §1

Another assay relates to downy bromegrass. In words: Test C postemergence herbicide test. Format: in vivo, Bromus tectorum. In outline: as §1
Another assay deals with windgrass. The experiment in a line: Test C postemergence herbicide test. Format: in vivo, Apera spica-venti. The essentials: as §1
Another assay concerns winter barley. In words: Test C postemergence herbicide test. Format: in vivo, Hordeum vulgare. In outline:
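Injury scored visually against controls on a 0 (no effect) to 100 (complete control) scale, 12 to 14 days after treatment in greenhouse. Flooded paddy plants treated at 2-leaf stage; postemergence plants at 1- to 4-leaf stage, 2 to 18 cm tall.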

The test system of another assay is green foxtail. The experiment in a line: Test C postemergence herbicide test. The format is in vivo, Setaria viridis. The essentials:
as §1

In a further assay the test system is canarygrass. In words: Test C postemergence herbicide test. The format is in vivo, Phalaris minor. In outline:
as §1

A further assay concerns yellow nutsedge. The experiment in a line: Test C pre-/postemergence herbicide test. The format is in vivo, Cyperus esculentus. The note with it: for Plant response rating, Nutsedge, Yellow / Plant response rating (0 = no effect, 100 = complete control), Nutsedge, Yellow: preemergence; for Nutsedge, Yellow plant response rating: Preemergence, scale 0 to 100, 0 no effect, 100 complete control. The essentials: (§2)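 Visual ratings on a 0–100 scale (100 = complete control) made versus untreated controls after 12 to 14 greenhouse days. Test chemicals, formulated in surfactant-containing non-phytotoxic solvent, applied preemergence to planted seeds or postemergence to 1- to 4-leaf plants (2 to 18 cm).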

Another assay has as its system pigweed. The experiment in a line: Test C pre-/postemergence herbicide test. The format is in vivo, Amaranthus retroflexus. The note with it: for Plant response rating, Pigweed / Plant response rating (0 = no effect, 100 = complete control), Pigweed: preemergence; for Pigweed plant response rating: Preemergence, scale 0 to 100, 0 no effect, 100 complete control. In outline: as §2

The subject of the next assay is eastern black nightshade. In words: Test C pre-/postemergence herbicide test. The note with it: for Plant response rating, Nightshade / Plant response rating (0 = no effect, 100 = complete control), Nightshade: preemergence; for Nightshade plant response rating: Preemergence, scale 0 to 100, 0 no effect, 100 complete control. Format: in vivo, Solanum ptycanthum. The essentials:
as §2

The mark [1] stands for this setting: Postemergence, 500 g ai/ha, scale 0 to 100, 0 no effect, 100 complete control.
The mark [2] stands for this setting: postemergence, 125 g ai/ha, scale 0 to 100.
Where [3] appears, read: postemergence, 62 g ai/ha, scale 0 to 100.
Where [4] appears, read: Postemergence, 500 g ai/ha, scale 0 to 100.
The mark [5] stands for this setting: Postemergence, 250 g ai/ha, scale 0 to 100, 0 no effect, 100 complete control.
[6] abbreviates: 125 g ai/ha, scale 0 (no effect) to 100 (complete control), visual, 12 to 14 days.
[7] abbreviates: 500 g ai/ha, scale 0 to 100 (0 no effect, 100 complete control), visual, 12 to 14 days.

Regarding `C=CCOc1cccc(NC(=O)c2cc(C(C)(C)C)nn2CC)c1` [Compound 412], the “Plant response rating, Wheat” value with wheat (setting [1]) stood at 50; in the assay on wheat (setting [2]), 35; in the assay with wheat (setting [3]) it was 35. For the same compound, the “Plant response rating, Ryegrass, Italian” value is recorded as 60 in the assay on Italian ryegrass (setting [1]), 45 with Italian ryegrass (setting [2]) and 40 in the assay on Italian ryegrass (setting [3]). Further, the “Blackgrass plant response rating” value in the assay with blackgrass (setting [4]) was found to be 65. Further, the figures for the “Plant response rating, Blackgrass” value in the assay with blackgrass (setting [5]), in the assay with blackgrass (setting [2]) and with blackgrass (setting [3]) were 65, 45 and 45, respectively. The figures for the “Plant response rating, Oat, Wild” value with wild oat (setting [1]), in the assay on wild oat (setting [2]) and in the assay with wild oat (setting [3]) were 70, 65 and 60, respectively. Further, the “Plant response rating, Bromegrass, Downy” value in the assay with downy bromegrass (setting [5]) came out at 55; with downy bromegrass (setting [1]) it was 60; with downy bromegrass (setting [2]) it was 45; with downy bromegrass (setting [3]) it was 40. The “Plant response rating, Windgrass” value in the assay with windgrass (setting [1]) came to 65; in the assay with windgrass (setting [2]), 45; with windgrass (setting [3]), 40. The “Barley, Winter plant response rating” value in the assay with winter barley (setting [4]) came to 50. The “Plant response rating, Barley, Winter” value in the assay on winter barley (setting [5]) is 40; in the assay on winter barley (postemergence, 125 g ai/ha, scale 0 to 100 (0 no effect, 100 complete control)) it was 35; in the assay with winter barley (postemergence, 62 g ai/ha, scale 0 to 100 (0 no effect, 100 complete control)), 30. For the same compound, the “Plant response rating, Foxtail, Green” value in the assay with green foxtail (setting [5]) is 65; with green foxtail (setting [1]) it was 65; with green foxtail (setting [2]), 60; in the assay with green foxtail (setting [3]) it was 45. In addition, the “Plant response rating, Canarygrass” value in the assay on canarygrass (setting [5]) was found to be 60; in the assay with canarygrass (setting [1]), 60; in the assay on canarygrass (setting [2]), 45; with canarygrass (setting [3]), 45.

Turning to `CCc1nc(C(C)(C)C)sc1C(=O)Nc1cccc(C(=O)NCC2CC2)n1` [Compound 215], the “Plant response rating, Nutsedge, Yellow” value is 0 in the assay with yellow nutsedge (62 g ai/ha, scale 0 to 100); 0 in the assay on yellow nutsedge (setting [6]); 0 in the assay on yellow nutsedge (250 g ai/ha, scale 0-100); 0 in the assay on yellow nutsedge (setting [7]). For the same compound, the “Plant response rating, Pigweed” value with pigweed (62 g ai/ha, scale 0 to 100) is on record as 80; in the assay on pigweed (setting [6]), 100; in the assay with pigweed (250 g ai/ha, scale 0-100) it was 100; with pigweed (setting [7]), 100. For the same compound, the “Plant response rating, Nightshade” value was determined as 100 in the assay on eastern black nightshade (62 g ai/ha, scale 0 to 100); 100 in the assay with eastern black nightshade (setting [6]); 100 with eastern black nightshade (250 g ai/ha, scale 0-100); 100 with eastern black nightshade (setting [7]).

In the case of `CCn1nc(C(C)(C)C)cc1C(=O)Nc1cccc(S(=O)(=O)C(F)(F)F)c1` [Compound 134], the “Plant response rating (0 = no effect, 100 = complete control), Nutsedge, Yellow” value with yellow nutsedge (62 g ai/ha) is 0. The “Plant response rating, Nutsedge, Yellow” value with yellow nutsedge (setting [6]) is listed as 0. For the same compound, the “Nutsedge, Yellow plant response rating” value in the assay with yellow nutsedge (500 g ai/ha) worked out at 0. Also, in the assay with pigweed (62 g ai/ha), the “Plant response rating (0 = no effect, 100 = complete control), Pigweed” value is 95. For the same compound, the “Plant response rating, Pigweed” value in the assay on pigweed (setting [6]) amounted to 95. For the same compound, the “Pigweed plant response rating” value with pigweed (500 g ai/ha) is 100. Besides, in the assay with eastern black nightshade (62 g ai/ha), the “Plant response rating (0 = no effect, 100 = complete control), Nightshade” value amounted to 90. Further, the “Plant response rating, Nightshade” value in the assay with eastern black nightshade (setting [6]) is reported as 95. Besides, the “Nightshade plant response rating” value in the assay with eastern black nightshade (500 g ai/ha) is recorded as 100.

Consider `C=CCNC(=O)c1cccc(NC(=O)c2sc(C(C)(C)C)nc2C)c1` [Compound 202], for which the “Plant response rating, Nutsedge, Yellow” value with yellow nutsedge (62 g ai/ha, scale 0 to 100) was 0; in the assay with yellow nutsedge (setting [6]), 0; with yellow nutsedge (250 g ai/ha, scale 0-100), 0. Moreover, in the assay with yellow nutsedge (500 g ai/ha), the “Nutsedge, Yellow plant response rating” value is on record as 0. The “Plant response rating, Pigweed” value in the assay on pigweed (62 g ai/ha, scale 0 to 100) was found to be 95; with pigweed (setting [6]), 100; with pigweed (250 g ai/ha, scale 0-100), 100. The “Pigweed plant response rating” value in the assay with pigweed (500 g ai/ha) was 100. In addition, the “Plant response rating, Nightshade” value in the assay on eastern black nightshade (62 g ai/ha, scale 0 to 100) was 20; in the assay on eastern black nightshade (setting [6]), 95; with eastern black nightshade (250 g ai/ha, scale 0-100) it was 100. Besides, the “Nightshade plant response rating” value in the assay on eastern black nightshade (500 g ai/ha) stood at 100.

With `CCC1=NN(C(C)(C)C)CC1C(=O)Nc1cc(C(=O)N2CC=CC2)ccc1F` (racemic) [Compound 340], the “Plant response rating, Nutsedge, Yellow” value in the assay with yellow nutsedge (62 g ai/ha, scale 0 to 100) stood at 0; in the assay on yellow nutsedge (250 g ai/ha, scale 0-100) it was 0; in the assay on yellow nutsedge (setting [7]), 60. The “Plant response rating (0 = no effect, 100 = complete control), Nutsedge, Yellow” value in the assay on yellow nutsedge (125 g ai/ha) amounted to 0. For the same compound, the “Plant response rating, Pigweed” value in the assay on pigweed (62 g ai/ha, scale 0 to 100) is 70; in the assay on pigweed (250 g ai/ha, scale 0-100) it was 100; with pigweed (setting [7]), 100. For the same compound, the “Plant response rating (0 = no effect, 100 = complete control), Pigweed” value in the assay with pigweed (125 g ai/ha) is recorded as 85. Moreover, the “Plant response rating, Nightshade” value in the assay with eastern black nightshade (62 g ai/ha, scale 0 to 100) is 60; in the assay on eastern black nightshade (250 g ai/ha, scale 0-100) it was 100; with eastern black nightshade (setting [7]), 100. Also, the “Plant response rating (0 = no effect, 100 = complete control), Nightshade” value in the assay on eastern black nightshade (125 g ai/ha) is recorded as 90.

The values are drawn from patent US20060069132A1, “Azolecarboxamide herbicides” (priority 2004, published 2006).
